Results as given in ChEMBL document CHEMBL3991601, “The target landscape of clinical kinase drugs” (Science, 2017).
The source made the active and inactive calls. Cut-off read from the data, not from the text of the source, for most assays here: actives have a measured Kd and inactives only a lower limit.

Legend:
[1] = molecular target: BMP-2-inducible protein kinase (Homo sapiens, UniProt Q9NSY1)
[2] = molecular target: T1, Bone morphogenetic protein receptor type-2 (Homo sapiens, UniProt Q13873)
T1 sequence (Q13873 whole entry): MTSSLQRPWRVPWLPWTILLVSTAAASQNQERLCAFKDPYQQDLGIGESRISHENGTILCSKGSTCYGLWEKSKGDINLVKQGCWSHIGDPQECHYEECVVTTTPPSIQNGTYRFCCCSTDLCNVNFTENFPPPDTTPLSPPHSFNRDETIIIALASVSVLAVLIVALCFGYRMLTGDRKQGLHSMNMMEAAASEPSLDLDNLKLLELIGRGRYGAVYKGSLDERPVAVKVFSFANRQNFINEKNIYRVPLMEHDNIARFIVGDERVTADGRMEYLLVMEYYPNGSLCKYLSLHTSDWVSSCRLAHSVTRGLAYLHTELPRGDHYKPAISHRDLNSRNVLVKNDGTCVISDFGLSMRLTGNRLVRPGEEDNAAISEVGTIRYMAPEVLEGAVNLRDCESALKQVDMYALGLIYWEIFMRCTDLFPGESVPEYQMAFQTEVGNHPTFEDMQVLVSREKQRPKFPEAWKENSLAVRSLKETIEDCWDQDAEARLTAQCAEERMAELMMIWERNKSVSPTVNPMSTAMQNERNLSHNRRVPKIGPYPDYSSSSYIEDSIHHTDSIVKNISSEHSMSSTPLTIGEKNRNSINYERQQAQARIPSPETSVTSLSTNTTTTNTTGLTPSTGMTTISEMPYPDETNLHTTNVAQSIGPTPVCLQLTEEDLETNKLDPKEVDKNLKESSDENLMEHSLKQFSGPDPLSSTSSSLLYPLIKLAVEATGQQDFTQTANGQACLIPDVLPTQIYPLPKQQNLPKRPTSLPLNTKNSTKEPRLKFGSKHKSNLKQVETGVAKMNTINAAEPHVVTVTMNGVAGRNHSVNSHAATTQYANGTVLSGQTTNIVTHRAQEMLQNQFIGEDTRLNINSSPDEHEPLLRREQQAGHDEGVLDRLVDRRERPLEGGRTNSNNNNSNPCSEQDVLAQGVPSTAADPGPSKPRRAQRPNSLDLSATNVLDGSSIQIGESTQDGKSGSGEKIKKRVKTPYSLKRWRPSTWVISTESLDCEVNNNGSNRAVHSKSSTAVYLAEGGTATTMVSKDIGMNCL

[3] = molecular target: Dual specificity protein kinase CLK1 (Homo sapiens, UniProt P49759)
Sequence of Dual specificity protein kinase CLK1 (P49759 whole entry): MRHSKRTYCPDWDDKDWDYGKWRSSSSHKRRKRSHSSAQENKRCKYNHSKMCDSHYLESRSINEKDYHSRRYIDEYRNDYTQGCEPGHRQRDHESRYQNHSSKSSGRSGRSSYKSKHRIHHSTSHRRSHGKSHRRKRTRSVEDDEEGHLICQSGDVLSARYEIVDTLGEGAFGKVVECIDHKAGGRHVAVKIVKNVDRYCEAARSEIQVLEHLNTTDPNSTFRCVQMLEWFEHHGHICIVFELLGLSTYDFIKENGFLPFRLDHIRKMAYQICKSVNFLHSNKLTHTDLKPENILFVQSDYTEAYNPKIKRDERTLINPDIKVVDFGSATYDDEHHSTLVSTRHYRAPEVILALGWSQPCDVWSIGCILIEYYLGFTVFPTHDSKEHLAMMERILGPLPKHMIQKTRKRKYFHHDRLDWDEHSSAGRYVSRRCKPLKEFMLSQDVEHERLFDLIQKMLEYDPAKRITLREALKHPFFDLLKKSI

[4] = molecular target: T2, STE20-related kinase adapter protein alpha (Homo sapiens, UniProt Q7RTN6)
T2 sequence (Q7RTN6 whole entry): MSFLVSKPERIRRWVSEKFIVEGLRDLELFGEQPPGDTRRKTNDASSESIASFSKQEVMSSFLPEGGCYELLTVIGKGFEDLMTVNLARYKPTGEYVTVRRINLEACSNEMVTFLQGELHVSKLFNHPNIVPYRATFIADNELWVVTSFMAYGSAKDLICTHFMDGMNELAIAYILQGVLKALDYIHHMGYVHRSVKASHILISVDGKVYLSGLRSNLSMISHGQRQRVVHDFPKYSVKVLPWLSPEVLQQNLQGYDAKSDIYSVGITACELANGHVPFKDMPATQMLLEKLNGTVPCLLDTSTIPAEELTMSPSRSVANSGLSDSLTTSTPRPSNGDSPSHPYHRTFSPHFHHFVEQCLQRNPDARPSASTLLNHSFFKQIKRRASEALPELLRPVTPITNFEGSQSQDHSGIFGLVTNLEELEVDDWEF

[5] = molecular target: Tyrosine-protein kinase Lyn (Homo sapiens, UniProt P07948)
Sequence of Tyrosine-protein kinase Lyn (P07948 whole entry): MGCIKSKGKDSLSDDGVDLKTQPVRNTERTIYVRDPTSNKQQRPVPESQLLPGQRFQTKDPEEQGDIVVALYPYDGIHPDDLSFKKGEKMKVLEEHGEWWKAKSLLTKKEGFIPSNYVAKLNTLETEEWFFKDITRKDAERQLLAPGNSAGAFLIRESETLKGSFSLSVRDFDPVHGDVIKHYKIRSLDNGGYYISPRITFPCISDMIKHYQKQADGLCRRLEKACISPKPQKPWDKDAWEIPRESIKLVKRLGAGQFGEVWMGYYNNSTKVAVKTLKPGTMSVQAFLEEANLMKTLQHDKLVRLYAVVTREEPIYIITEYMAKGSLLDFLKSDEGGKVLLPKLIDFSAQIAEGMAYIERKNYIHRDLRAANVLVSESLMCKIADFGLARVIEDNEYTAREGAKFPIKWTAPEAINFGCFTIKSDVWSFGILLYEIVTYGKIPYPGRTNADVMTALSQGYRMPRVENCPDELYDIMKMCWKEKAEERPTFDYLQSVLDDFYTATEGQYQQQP

[6] = molecular target: Serine/threonine-protein kinase/endoribonuclease IRE1 (Homo sapiens, UniProt O75460)
Sequence of Serine/threonine-protein kinase/endoribonuclease IRE1 (O75460 whole entry): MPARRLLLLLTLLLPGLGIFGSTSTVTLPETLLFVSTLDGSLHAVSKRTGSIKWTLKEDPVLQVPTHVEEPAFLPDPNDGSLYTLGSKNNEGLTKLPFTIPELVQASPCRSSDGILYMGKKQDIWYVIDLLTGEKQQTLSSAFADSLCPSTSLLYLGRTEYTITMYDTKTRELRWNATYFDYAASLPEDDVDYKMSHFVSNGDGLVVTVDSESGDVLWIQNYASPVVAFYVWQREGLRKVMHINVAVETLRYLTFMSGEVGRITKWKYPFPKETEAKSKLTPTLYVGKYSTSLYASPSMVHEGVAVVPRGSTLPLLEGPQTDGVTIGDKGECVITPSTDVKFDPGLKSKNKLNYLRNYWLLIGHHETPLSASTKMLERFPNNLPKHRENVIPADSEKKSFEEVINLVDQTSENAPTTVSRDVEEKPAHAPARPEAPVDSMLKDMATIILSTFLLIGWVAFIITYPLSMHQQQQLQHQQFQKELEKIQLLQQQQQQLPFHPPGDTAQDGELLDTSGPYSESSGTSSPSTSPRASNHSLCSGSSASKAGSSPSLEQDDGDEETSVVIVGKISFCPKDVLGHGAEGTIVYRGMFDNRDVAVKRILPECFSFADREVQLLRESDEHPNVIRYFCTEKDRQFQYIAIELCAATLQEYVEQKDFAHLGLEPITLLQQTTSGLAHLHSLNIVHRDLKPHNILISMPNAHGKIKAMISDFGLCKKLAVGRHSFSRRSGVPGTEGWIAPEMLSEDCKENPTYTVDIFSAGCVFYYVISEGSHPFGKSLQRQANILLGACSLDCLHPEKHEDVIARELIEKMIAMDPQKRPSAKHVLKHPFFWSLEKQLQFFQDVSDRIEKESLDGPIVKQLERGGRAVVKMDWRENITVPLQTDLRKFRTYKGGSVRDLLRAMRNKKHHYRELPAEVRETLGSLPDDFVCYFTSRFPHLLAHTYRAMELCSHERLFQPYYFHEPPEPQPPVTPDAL

[7] = molecular target: T3, Ribosyldihydronicotinamide dehydrogenase [quinone] (Homo sapiens, UniProt P16083)
T3 sequence (P16083 whole entry): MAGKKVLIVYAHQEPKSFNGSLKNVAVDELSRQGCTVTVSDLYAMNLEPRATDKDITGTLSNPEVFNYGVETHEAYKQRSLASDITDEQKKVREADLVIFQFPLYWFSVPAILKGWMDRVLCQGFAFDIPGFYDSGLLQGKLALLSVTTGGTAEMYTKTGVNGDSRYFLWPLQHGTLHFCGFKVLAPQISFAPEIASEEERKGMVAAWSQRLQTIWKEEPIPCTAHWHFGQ

Glycine--tRNA ligase = molecular target: T4, Glycine--tRNA ligase (Homo sapiens, UniProt P41250)
T4 sequence (P41250 whole entry): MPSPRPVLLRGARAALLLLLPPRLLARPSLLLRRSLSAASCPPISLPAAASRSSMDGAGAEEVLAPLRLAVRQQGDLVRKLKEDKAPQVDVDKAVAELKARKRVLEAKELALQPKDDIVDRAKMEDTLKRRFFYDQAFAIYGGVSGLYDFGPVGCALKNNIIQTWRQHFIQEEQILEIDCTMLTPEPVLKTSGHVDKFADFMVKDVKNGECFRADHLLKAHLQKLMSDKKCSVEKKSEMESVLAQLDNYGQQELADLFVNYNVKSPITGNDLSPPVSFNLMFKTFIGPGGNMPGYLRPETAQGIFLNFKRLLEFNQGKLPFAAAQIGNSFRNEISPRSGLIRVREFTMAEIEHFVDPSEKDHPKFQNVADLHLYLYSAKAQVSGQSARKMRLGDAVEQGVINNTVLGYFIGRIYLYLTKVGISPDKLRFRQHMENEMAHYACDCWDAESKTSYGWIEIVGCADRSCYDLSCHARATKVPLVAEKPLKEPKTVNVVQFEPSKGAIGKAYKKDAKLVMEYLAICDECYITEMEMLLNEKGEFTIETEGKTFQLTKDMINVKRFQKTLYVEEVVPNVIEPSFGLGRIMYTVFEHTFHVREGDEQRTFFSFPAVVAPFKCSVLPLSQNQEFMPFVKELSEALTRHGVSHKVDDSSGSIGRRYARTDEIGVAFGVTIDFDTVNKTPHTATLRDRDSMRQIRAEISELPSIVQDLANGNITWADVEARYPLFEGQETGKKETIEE

Insulin receptor = Insulin receptor (Homo sapiens, UniProt P06213)
Sequence of Insulin receptor (P06213 28-758 limits assumed): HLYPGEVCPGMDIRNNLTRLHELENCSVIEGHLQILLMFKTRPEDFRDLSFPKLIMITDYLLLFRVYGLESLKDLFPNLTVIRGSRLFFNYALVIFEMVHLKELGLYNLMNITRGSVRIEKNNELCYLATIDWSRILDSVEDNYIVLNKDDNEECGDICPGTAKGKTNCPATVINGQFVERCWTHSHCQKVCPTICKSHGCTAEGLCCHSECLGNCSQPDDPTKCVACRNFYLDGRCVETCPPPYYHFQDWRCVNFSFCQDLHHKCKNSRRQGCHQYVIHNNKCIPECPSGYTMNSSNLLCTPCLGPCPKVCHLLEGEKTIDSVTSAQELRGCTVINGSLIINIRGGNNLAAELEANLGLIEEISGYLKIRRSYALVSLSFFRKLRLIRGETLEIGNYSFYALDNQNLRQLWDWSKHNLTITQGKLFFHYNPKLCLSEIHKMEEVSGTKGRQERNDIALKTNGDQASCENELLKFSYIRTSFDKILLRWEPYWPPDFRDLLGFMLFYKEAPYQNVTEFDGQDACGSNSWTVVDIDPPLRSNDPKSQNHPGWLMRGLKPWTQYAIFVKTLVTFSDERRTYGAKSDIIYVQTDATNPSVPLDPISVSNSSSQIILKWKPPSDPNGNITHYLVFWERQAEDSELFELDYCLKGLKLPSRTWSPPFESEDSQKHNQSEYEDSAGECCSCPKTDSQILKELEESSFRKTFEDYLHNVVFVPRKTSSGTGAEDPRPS
Sequence of Insulin receptor (P06213 763-1382 limits assumed): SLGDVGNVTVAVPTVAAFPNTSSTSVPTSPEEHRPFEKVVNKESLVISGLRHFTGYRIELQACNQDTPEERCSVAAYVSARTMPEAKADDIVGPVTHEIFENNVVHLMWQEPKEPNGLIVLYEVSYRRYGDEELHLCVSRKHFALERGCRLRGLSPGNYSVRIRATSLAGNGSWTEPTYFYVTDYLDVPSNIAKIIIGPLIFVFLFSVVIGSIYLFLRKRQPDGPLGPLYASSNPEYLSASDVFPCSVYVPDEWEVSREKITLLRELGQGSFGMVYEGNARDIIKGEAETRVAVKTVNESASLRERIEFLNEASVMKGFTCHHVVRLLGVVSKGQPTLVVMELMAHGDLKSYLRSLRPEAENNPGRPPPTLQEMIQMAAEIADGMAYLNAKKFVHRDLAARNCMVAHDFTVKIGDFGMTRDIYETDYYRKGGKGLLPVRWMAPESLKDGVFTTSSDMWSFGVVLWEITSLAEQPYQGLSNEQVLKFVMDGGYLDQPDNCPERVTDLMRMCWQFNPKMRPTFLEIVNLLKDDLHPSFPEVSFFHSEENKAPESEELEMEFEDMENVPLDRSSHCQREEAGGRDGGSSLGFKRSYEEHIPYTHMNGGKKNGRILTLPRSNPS
Note: in the data inactive means no Kd found up to 30 µM.

Sequence of BMP-2-inducible protein kinase (Q9NSY1 whole entry): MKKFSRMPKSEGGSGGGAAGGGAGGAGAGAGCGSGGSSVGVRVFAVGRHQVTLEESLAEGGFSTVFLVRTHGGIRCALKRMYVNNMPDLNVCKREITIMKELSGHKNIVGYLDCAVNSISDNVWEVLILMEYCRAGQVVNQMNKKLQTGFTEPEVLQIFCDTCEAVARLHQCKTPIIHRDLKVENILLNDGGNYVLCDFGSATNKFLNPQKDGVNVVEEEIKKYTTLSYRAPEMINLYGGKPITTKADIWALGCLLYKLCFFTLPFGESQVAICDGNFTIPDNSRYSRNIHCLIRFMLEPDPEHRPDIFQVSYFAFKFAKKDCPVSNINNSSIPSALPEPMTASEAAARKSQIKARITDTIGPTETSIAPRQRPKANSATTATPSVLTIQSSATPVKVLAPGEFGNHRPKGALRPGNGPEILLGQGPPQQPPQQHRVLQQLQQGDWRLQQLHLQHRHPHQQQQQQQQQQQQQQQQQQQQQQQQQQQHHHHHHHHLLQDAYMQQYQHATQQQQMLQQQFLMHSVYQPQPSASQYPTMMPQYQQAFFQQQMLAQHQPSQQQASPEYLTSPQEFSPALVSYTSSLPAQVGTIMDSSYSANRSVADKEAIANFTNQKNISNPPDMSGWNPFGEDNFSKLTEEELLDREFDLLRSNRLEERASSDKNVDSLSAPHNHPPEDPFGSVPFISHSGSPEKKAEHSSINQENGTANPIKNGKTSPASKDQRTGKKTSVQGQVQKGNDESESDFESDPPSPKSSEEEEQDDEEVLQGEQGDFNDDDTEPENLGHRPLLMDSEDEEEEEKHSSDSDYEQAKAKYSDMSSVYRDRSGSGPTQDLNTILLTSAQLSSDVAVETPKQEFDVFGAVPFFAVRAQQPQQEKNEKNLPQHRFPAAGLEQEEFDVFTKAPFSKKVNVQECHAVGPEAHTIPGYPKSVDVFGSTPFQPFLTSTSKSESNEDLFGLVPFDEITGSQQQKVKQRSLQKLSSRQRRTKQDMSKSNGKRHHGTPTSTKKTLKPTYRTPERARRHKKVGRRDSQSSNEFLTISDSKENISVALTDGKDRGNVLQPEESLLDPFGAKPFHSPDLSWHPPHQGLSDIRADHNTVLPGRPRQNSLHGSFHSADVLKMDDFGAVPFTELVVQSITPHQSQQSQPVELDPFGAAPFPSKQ

Row | Kd [1] | Kd [2] | Kd [3] | Kd [4] | Kd [5] | Kd [6] | Kd [7] | Kd (Glycine--tRNA ligase) | Kd (Insulin receptor) | Structure (SMILES)
1 | > 30 µM (inactive) | > 30 µM (inactive) | > 30 µM (inactive) | > 30 µM (inactive) | > 30 µM (inactive) | > 30 µM (inactive) | > 30 µM (inactive) | > 30 µM (inactive) | > 30 µM (inactive) | O=C(O)[C@]1(Cc2cccc(Nc3nccs3)n2)CC[C@@H](Oc2cccc(Cl)c2F)CC1 [MK-5108]
2 | > 30 µM (inactive) | > 30 µM (inactive) | > 30 µM (inactive) | > 30 µM (inactive) | > 30 µM (inactive) | > 30 µM (inactive) | > 30 µM (inactive) | > 30 µM (inactive) | > 30 µM (inactive) | CC(=O)Nc1cccc(-n2c(=O)n(C3CC3)c(=O)c3c(Nc4ccc(I)cc4F)n(C)c(=O)c(C)c32)c1 [TRAMETINIB]
3 | > 30 µM (inactive) | > 30 µM (inactive) | > 30 µM (inactive) | > 30 µM (inactive) | > 30 µM (inactive) | > 30 µM (inactive) | 0.323 µM (active) | > 30 µM (inactive) | > 30 µM (inactive) | Cn1cc(-c2ccc3nnc(C(F)(F)c4ccc5ncccc5c4)n3n2)cn1 [JNJ-38877605]
4 | > 30 µM (inactive) | > 30 µM (inactive) | > 30 µM (inactive) | > 30 µM (inactive) | > 30 µM (inactive) | 12.2 µM (active) | 6.36 µM (active) | > 30 µM (inactive) | 7.91 µM (active) | COc1cc(N2CCC(N3CCN(C)CC3)CC2)ccc1Nc1ncnc(Nc2ccccc2S(=O)(=O)C(C)C)n1 [ASP-3026]
5 | > 30 µM (inactive) | > 30 µM (inactive) | > 30 µM (inactive) | > 30 µM (inactive) | 2.48 µM (active) | > 30 µM (inactive) | > 30 µM (inactive) | > 30 µM (inactive) | > 30 µM (inactive) | CNC(=O)CN1CCC(Oc2cc3c(Nc4cccc(Cl)c4F)ncnc3cc2OC)CC1 [SAPITINIB]

More lines, now with the values behind:

Row | Structure (SMILES) | Kd [1] | Kd [2] | Kd [3] | Kd [4] | Kd [5] | Kd [6] | Kd [7] | Kd (Glycine--tRNA ligase) | Kd (Insulin receptor)
6 | CO[C@H]1C[C@@H]2CC[C@@H](C)[C@@](O)(O2)C(=O)C(=O)N2CCCC[C@H]2C(=O)O[C@H]([C@H](C)C[C@@H]2CC[C@@H](OCCO)[C@H](OC)C2)CC(=O)[C@H](C)/C=C(\C)[C@@H](O)[C@@H](OC)C(=O)[C@H](C)C[C@H](C)/C=C/C=C/C=C/1C [EVEROLIMUS] | > 30 µM (inactive) | > 30 µM (inactive) | > 30 µM (inactive) | > 30 µM (inactive) | > 30 µM (inactive) | > 30 µM (inactive) | > 30 µM (inactive) | > 30 µM (inactive) | > 30 µM (inactive)
7 | C[C@@H](Nc1cc(F)cc(F)c1)c1cc(C(=O)N(C)C)cc2c(=O)cc(N3CCOCC3)oc12 [AZD-8186] | > 30 µM (inactive) | > 30 µM (inactive) | > 30 µM (inactive) | > 30 µM (inactive) | > 30 µM (inactive) | > 30 µM (inactive) | > 30 µM (inactive) | > 30 µM (inactive) | > 30 µM (inactive)
8 | OCCn1cc(-c2cnc3nnn(Cc4ccc5ncccc5c4)c3n2)cn1 [PF-04217903] | > 30 µM (inactive) | > 30 µM (inactive) | > 30 µM (inactive) | > 30 µM (inactive) | > 30 µM (inactive) | > 30 µM (inactive) | > 30 µM (inactive) | > 30 µM (inactive) | > 30 µM (inactive)
9 | O=c1sn(-c2cccc3ccccc23)c(=O)n1Cc1ccccc1 [TIDEGLUSIB] | > 30 µM (inactive) | > 30 µM (inactive) | > 30 µM (inactive) | > 30 µM (inactive) | > 30 µM (inactive) | > 30 µM (inactive) | > 30 µM (inactive) | > 30 µM (inactive) | > 30 µM (inactive)
10 | CCc1cnn2c(NCc3ccc[n+]([O-])c3)cc(N3CCCC[C@H]3CCO)nc12 [DINACICLIB] | > 30 µM (inactive) | > 30 µM (inactive) | 0.714 µM (active) | > 30 µM (inactive) | > 30 µM (inactive) | > 30 µM (inactive) | > 30 µM (inactive) | > 30 µM (inactive) | > 30 µM (inactive)
11 | C=CC(=O)N1CCC(Oc2cc3c(Nc4ccc(Cl)c(Cl)c4F)ncnc3cc2OC)CC1 [POZIOTINIB] | > 30 µM (inactive) | > 30 µM (inactive) | > 30 µM (inactive) | > 30 µM (inactive) | > 30 µM (inactive) | > 30 µM (inactive) | > 30 µM (inactive) | > 30 µM (inactive) | > 30 µM (inactive)
12 | CC(C)Nc1cc(-c2c[nH]c(C(=O)N[C@H](CO)c3cccc(Cl)c3)c2)c(Cl)cn1 [ULIXERTINIB] | > 30 µM (inactive) | > 30 µM (inactive) | > 30 µM (inactive) | > 30 µM (inactive) | > 30 µM (inactive) | > 30 µM (inactive) | > 30 µM (inactive) | > 30 µM (inactive) | > 30 µM (inactive)
13 | CN1CC[C@@H](c2c(O)cc(O)c3c(=O)cc(-c4ccccc4Cl)oc23)[C@@H]1CO | > 30 µM (inactive) | > 30 µM (inactive) | > 30 µM (inactive) | > 30 µM (inactive) | > 30 µM (inactive) | > 30 µM (inactive) | > 30 µM (inactive) | > 30 µM (inactive) | > 30 µM (inactive)
14 | C[C@@H]1CN(Cc2ccc(F)cc2)[C@@H](C)CN1C(=O)c1cc2c(C(=O)C(=O)N(C)C)cn(C)c2cc1Cl [TALMAPIMOD] | > 30 µM (inactive) | > 30 µM (inactive) | > 30 µM (inactive) | > 30 µM (inactive) | > 30 µM (inactive) | > 30 µM (inactive) | 9.92 µM (active) | > 30 µM (inactive) | > 30 µM (inactive)
15 | CNC(=O)c1ccc(-c2cnc3ncc(Cc4ccc5ncccc5c4)n3n2)cc1F [CAPMATINIB] | > 30 µM (inactive) | > 30 µM (inactive) | > 30 µM (inactive) | > 30 µM (inactive) | > 30 µM (inactive) | > 30 µM (inactive) | > 30 µM (inactive) | > 30 µM (inactive) | > 30 µM (inactive)
